Experimental data as given in patent US5162571A, “Phenol derivatives, their production and use” (Takeda Chemical Industries, Ltd., priority 1987, dated 1992).

How the values were obtained:
[1] = molecular target: T1, 5-Lipoxygenase (Rattus norvegicus, UniProt P12527); assay: 5-Lipoxygenase inhibitory activity (5-HETE production in RBL-1 cells); format: cell-based; conditions: read-out: Inhibitory effect on 5-HETE production (%)
T1 construct: RBL-1 cells (rat basophilic leukemia cells); endogenous in cells; host or cells: RBL-1 (rat basophilic leukemia cells)
T1 sequence (P12527 1-673): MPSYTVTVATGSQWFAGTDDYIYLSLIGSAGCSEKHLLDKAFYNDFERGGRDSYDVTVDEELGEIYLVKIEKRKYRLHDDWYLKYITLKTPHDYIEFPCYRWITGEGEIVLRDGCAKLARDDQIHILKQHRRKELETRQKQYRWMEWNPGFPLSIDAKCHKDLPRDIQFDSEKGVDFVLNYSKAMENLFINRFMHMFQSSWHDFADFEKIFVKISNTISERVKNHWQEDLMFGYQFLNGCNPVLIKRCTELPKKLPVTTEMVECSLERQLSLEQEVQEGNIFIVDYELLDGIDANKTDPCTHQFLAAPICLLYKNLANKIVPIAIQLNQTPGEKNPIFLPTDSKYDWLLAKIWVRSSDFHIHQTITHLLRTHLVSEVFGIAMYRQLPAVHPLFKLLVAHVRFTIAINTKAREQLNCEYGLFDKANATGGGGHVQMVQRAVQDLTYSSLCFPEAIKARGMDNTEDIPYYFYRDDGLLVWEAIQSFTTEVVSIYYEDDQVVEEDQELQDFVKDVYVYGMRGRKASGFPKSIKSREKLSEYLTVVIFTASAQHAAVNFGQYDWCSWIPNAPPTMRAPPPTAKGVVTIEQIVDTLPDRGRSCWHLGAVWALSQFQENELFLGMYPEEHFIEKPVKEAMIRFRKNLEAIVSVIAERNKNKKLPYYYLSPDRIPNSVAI
Method: 5-Lipoxygenase inhibitory activity
Method: 10^7 RBL-1 cells (rat basophilic leukemia cells) were suspended in 0.5 ml of MCM (mast cell medium), and test solutions (made up of 0.5 ml of MCM, 50 μg of arachidonic acid, 10 μg of A-23187 (calcium ionophore) and 1 μM, 0.01 μM and 0.001 μM as the final concentration of the phenol compound, respectively) prepared previously were added respectively to the suspension, followed by reaction at 37° C. for 20 minutes. After the conclusion of the reaction, 4 ml of ethanol and 1,4-dimethoxy-2-methyl-3-(3-methoxypropyl)naphthalene as the internal reference drug were added to the reaction solution, and the mixture was shaken thoroughly and allowed to stand at room temperature for 10 minutes. Then, it was centrifuged (2000 r.p.m.) for 10 minutes, and the supernatant fluid was separated and concentrated to dryness under reduced pressure. 0.5 ml of 60% aqueous methanol was added to the concentrate, and 100 μl of the resulting solution was taken and subjected to high-performance liquid chromatography to determine the amount of 5-HETE (5-hydroxy-eicosatetraenoic acid). Determination of 5-HETE was made through measurement of an absorption at 237 nm with a UV absorption monitor.
The 5-HETE production inhibitory effect (IE) was expressed by [formula] wherein a is a peak height or peak area corrected by the peak for the internal reference when the phenol compound is not contained; b is a peak height or peak area corrected by the peak for the internal reference when the phenol compound is contained.

[2] = tested on: lipid peroxides production in rat brain homogenates; assay: Inhibitory action on lipid peroxides production in rat brain homogenates; format: biochemical; conditions: 10^-5 M
Method: Inhibitory action on lipid peroxides production in rat brain homogenates
Method: The male SD rat brain tissue was used as 5% homogenate in phosphate-buffered solution. After incubation of the homogenate for 1 hour at 37° C., the amount of lipid peroxides produced was determined by the thiobarbituric acid method according to the description of Ohkawa et al. (Analytical Biochemistry, 95: 551, 1979)
Test compounds were used as a solution of dimethylsulfoxide. The inhibitory action on lipid peroxide production was expressed as a % inhibition as compared with the amount of production in the vehicle group.

[3] = molecular target: T2, specific [^3 H] U-46619 binding to guinea pig platelet membrane (Cavia porcellus, UniProt A0A286Y4I8); assay: Inhibition of specific [^3 H] U-46619 binding to guinea pig platelet membrane; conditions: [^3 H] U-46619, 25° C., 30 min; read-out: IC50 (Concentration for 50% inhibition)
T2 construct: Platelet membranes were prepared according to the following procedure; from tissue; host or cells: guinea pig platelet membranes
T2 sequence (A0A286Y4I8 1-347): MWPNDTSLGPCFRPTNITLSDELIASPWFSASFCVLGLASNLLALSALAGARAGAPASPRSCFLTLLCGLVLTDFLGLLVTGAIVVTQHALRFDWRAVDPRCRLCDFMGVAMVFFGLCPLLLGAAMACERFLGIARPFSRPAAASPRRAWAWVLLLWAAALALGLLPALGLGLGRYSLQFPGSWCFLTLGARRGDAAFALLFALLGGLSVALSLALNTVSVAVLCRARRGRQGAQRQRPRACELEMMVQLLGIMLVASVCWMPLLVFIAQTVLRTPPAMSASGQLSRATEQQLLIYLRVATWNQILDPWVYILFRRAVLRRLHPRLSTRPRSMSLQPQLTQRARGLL
Method: Inhibition of specific [^3 H] U-46619 binding to guinea pig platelet membrane
Method: Blood from normal guinea pig was collected into 0.315% citrate solution containing aspirin (final concentration 1 mM) and was centrifuged at 3000 r.p.m. for […]. The PRP (platelet rich plasma) was centrifuged at 4800 r.p.m for 10 min. at 4° C. Platelet membranes were prepared according to the following procedure: In order to remove the residual plasma protein, the platelet pellet was washed once with 30 ml of buffer containing 25 mM Tris-HCl/5 mM MgCl2 (pH 7.4) and recentrifuged to pellet the platelets. The platelets were then resuspended in 20 ml of the same buffer, and the cells were disrupted by sonication. The sonication was performed on ice using a Kontes Sonicator (Vineland, N.J.). The platelets were sonicated for a total of 90 sec. with a 15 sec. burst followed by a 15 sec. intermission. The sonicated mixture was centrifuged at 100,000×g for 1 hour and the membrane fraction was suspended in the same buffer. The protein concentration was adjusted to 1 mg/ml.
The binding assay was performed at 25° C. for 30 min. One ml of the resuspended membrane fraction was incubated with […] of [^3 H] U-46619. The incubation mixture was filtered through a glass fiber membrane (GF/C, whatman) to separate the membrane bound from free [^3 H] U-46619. The membranes were quickly washed twice with 5 ml of cold buffer, mixed with 4 ml of ACS scintillation fluid and counted for [^3 H] U-46619.

inhibition at 10 µM ([1]; 10^-5 M): 96% | inhibition at 1 µM ([1]; 10^-6 M): 22% | IC50 [3]: 200 nM
Compound: Cc1c(C)c(Br)c(C)c(C(CCCCCC(=O)O)c2ccc(F)cc2)c1O (stereo not shown) [Compound 12, 7-(5-bromo-2-hydroxy-3,4,6-trimethylphenyl)-7-(4-fluorophenyl)heptanoic acid]
Inhibition (%) [2]: 100%
